In PMC10746189, “Campylobacter jejuni uses energy taxis and a dehydrogenase enzyme for L-fucose chemotaxis” (mBio, 2023):

Molecular target: T1, FucX (Campylobacter jejuni, UniProt Q0PB28)
T1 construct: gene Cj0485; His-tagged FucX from pET30a(+)-fucX, expressed in E. coli BL21, Ni-NTA purified, desalted
Experiment: dehydrogenase assay, NADPH absorbance at […] nm
Type: biochemical
Details: 5 nM protein; 1 mM L-fucose; 100 µM NADP+; 1 mM MgCl2; 50 mM Tris-HCl pH 7.5; room temperature

T1 sequence (Q0PB28 entry or part of it): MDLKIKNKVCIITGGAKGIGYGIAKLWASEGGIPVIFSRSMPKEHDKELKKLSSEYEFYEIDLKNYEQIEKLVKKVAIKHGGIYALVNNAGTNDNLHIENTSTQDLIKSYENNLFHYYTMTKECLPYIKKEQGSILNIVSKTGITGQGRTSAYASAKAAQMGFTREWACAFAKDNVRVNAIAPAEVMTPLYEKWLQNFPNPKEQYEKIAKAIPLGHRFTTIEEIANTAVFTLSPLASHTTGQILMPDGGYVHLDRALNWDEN

## C[C@@H]1OC(O)[C@@H](O)[C@H](O)[C@@H]1O (stereo partly drawn) [L-fucose]
  dehydrogenase assay, NADPH absorbance at 340 nm: L-Fucose dehydrogenase activity of indicated FucX pure proteins: (+), with L-fucose; (−), no L-fucose.
